Oligonucleotides are written 5' to 3', each unit as a sugar letter and its base; * is a phosphorothioate linkage, no mark a phosphodiester; rarer units and linkages stand in square brackets, end groups in braces. Plain capitals give the bases only. e = 2'-O-(2-methoxyethyl) (MOE); [5mC] = 5-methylcytosine
What was measured:
Type in all cases: cell-based, human
[1] = test system: IKAP protein; experiment: IKAP protein levels in GM04899 fibroblasts (SDS-PAGE, anti-IKAP antibody, band intensity)
Description: Protein samples were obtained by Trizol extraction and separated by SDS-PAGE. The bands were transferred onto a nitrocellulose membrane and probed with an anti-IKAP antibody (abcam #ab56362) (1:1,000 dilution in 5% milk in TBST) for 12 hrs. The membrane was washed 5 times with TBST for 5 min each and then probed with secondary antibody 800 nm LiCor (1:5,000 in 5% milk in TBST) for 1 hr in the dark. The membrane was subsequently washed 5 times with TBST for 5 min each. The bands were then exposed at 800 nm and band intensity was quantified using an Odyssey (LiCor) instrument. The results are presented in Table 4 as percent increase in band intensity compared to the control oligonucleotide-treated bands.

[2] = test system: IKBKAP mRNA in GM04899 fibroblasts; experiment: Exon 20 inclusion in FD patient skin fibroblast line GM04899 (RT-PCR); settings: GM04899, kinetin treatment for 3 days, concentration not given; relative to IMR90 cells (100%)
Description: To investigate the effect of ISIS 421992 on patient-derived fibroblasts, the patient skin fibroblast line GM04899 (Coriell Cell Repository) was utilized. The cell line was derived from an individual homozygous for the major FD mutation.
GM04899 was cultured in minimal essential medium (Invitrogen) supplemented with non-essential amino acids (Invitrogen) and 20% (v/v) fetal bovine serum. The cells were grown to 40-50% confluence in 10-cm dishes. Cells were transfected with 2 nM, 5 nM, 25 nM, or 125 nM concentrations of ISIS 421992 using 12 μL Lipofectamine 2000 transfection reagent (Invitrogen). Two days later, cDNA synthesized from total RNA extracted from HEK-293 cells was amplified using the forward primer pCDNAF and reverse primer sequence IKAP21R4 to assay the splicing pattern of expressed RNAs by RT-PCR. To calculate exon 20 inclusion levels, the PCR amplicons were labeled with α^32P-dCTP. The PCR products were then separated by native PAGE, followed by phosphorimage analysis. The band intensities were quantified and values were normalized for the G+C content according to the DNA sequence. Multiple lanes for each condition represent independent experiments.
A batch of cells was treated with solvent (NaOH) only of the kinetin solution as a control. RNA from IMR90, a wild-type normal diploid lung fibroblast cell line was used as positive control. The results are expressed as percent inclusion of exon 20 compared to the exon 20 inclusion (100%) of IKBKAP mRNA in IMR90 cells.

[3] = test system: IKBKAP pre-mRNA (mt19-21 minigene); experiment: Exon 20 inclusion in HEK-293 cells harboring the mt19-21 IKBKAP minigene (RT-PCR); settings: HEK-293 with mt19-21 minigene; for % inclusion (exon 20): 0.007 nmol oligonucleotide by electroporation, RT-PCR two days later; for effect on exon 20 inclusion/skipping, in words: 0.007 nmol oligonucleotide
Description: Antisense oligonucleotides were designed targeting a human IKBKAP nucleic acid and were tested for their effects on IKBKAP pre-mRNA in vitro. Together, the overlapping antisense oligonucleotides spanned the entire 74-nucleotide region of the IKBKAP exon 20 sequence, as well as the 100-nucleotide intronic regions immediately upstream and downstream of exon 20. The antisense oligonucleotides are presented in Table 1, and were designed as uniform 2′-O-methoxyethyl ribose (MOE) oligonucleotides with phosphate backbones. Each oligonucleotide is 15 nucleosides in length. All cytosine residues throughout the oligonucleotide are 5-methylcytosines. ‘Start Site’ indicates the 5′-most nucleoside to which the oligonucleotide is targeted in the human gene sequence. “Stop site” indicates the 3′-most nucleoside to which the oligonucleotide is targeted in the human gene sequence. Each oligonucleotide listed in Table 1 is targeted to the human IKBKAP genomic sequence (the complement of GENBANK Accession No NT_008470.16 truncated from nucleotides 13290828 to Ser. No. 13/358,424, designated herein as SEQ ID NO: 1). ISIS 414161 has one mismatch with SEQ ID NO: 1.
Cultured HEK-293 cells harboring the mt19-21 minigene vector construct at a density of 7×10^5 cells per well were transfected using electroporation (Gene Pulsar II apparatus, Bio-Rad) with 0.007 nmol antisense oligonucleotide, as previously described (Hua, Y., et al., 2007. PLoS Biol 5:e73). […] These oligonucleotides served as controls for non-specific effects of uniform MOE oligonucleotides with phosphate backbones. Cells harboring the wt19-21 minigene and the mt19-21 minigene alone were also cultured and were used as controls for exon 20 inclusion levels. Two days later, cDNA synthesized from total RNA extracted from HEK-293 cells was amplified using the forward primer pCDNAF and reverse primer sequence IKAP21R4 to assay the splicing pattern of expressed RNAs by RT-PCR. To calculate exon 20 inclusion levels, the PCR amplicons were labeled with α^32P-dCTP. The PCR products were then separated by native PAGE, followed by phosphorimage analysis on a FUJIFILM FLA-5100 instrument (Fuji Medical Systems USA Inc.). The band intensities were quantified using Multi Gauge software Version 2.3 (FUJIFILM), and values were normalized for the G+C content according to the DNA sequence.
Treatment with antisense oligonucleotides targeting the 3′ and 5′ splice sites caused increased skipping of exon 20.
Additional oligonucleotides were designed targeting the first 30-nucleotide stretch of ISS-40. These oligonucleotides were designed by choosing sequences shifted in one nucleotide increments upstream and downstream (i.e., a “microwalk”) of ISS-40, starting from the +6 position in exon 20. The antisense oligonucleotides are presented in Table 2 and FIG. 4D, and were designed as uniform 2′-O-methoxyethyl ribose (MOE) oligonucleotides with phosphate backbones. Each oligonucleotide is 20 nucleosides in length. All cytosine residues throughout the oligonucleotide are 5-methylcytosines. ‘Start Site’ indicates the 5′-most nucleoside to which the oligonucleotide is targeted in the human gene sequence. “Stop site” indicates the 3′-most nucleoside to which the oligonucleotide is targeted in the human gene sequence. Each oligonucleotide listed in Table 2 is targeted to intron 20 of the human IKBKAP genomic sequence (the complement of GENBANK Accession No NT_008470.16 truncated from nucleotides 13290828 to Ser. No. 13/358,424, designated herein as SEQ ID NO: 1). These oligonucleotides were tested in vitro.
Cultured HEK-293 cells harboring the mt19-21 minigene vector construct at a density of 7×10^5 cells per well were transfected using electroporation (Gene Pulsar II apparatus, Bio-Rad) with 0.007 nmol antisense oligonucleotide, as previously described (Hua, Y., et al., 2007. PLoS Biol 5:e73). […]

## c1coc(CNc2ncnc3nc[nH]c23)c1 [kinetin, 6-furfurylaminopurine, reference compound]
[1]; GM04899, kinetin, under these conditions
  IKAP protein levels, in words: did not increase IKAP protein levels
[1]; GM04899, kinetin-treated, compared to control oligonucleotide-treated bands
  Percent increase in protein band intensity (IKAP): 11%
[2]
  % inclusion of exon 20: 98%

## ISIS 414140: uniform 2′-MOE 15-mer, phosphate backbone; ATTAAGTAGAAAACA, SEQ ID NO 19, intron 19 (eAeTeTeAeAeGeTeAeGeAeAeAeAe[5mC]eA; splice-switching)
[3]; Table 1
  % inclusion (exon 20): 13%

## ISIS 414172: uniform 2′-MOE 15-mer, phosphate backbone; ATTGTAATAAAATAC, SEQ ID NO 51, intron 20 (eAeTeTeGeTeAeAeTeAeAeAeAeTeAe[5mC]; splice-switching)
[3]; Table 1
  % inclusion (exon 20): 31%

## ISIS 414130: uniform 2′-MOE 15-mer, phosphate backbone; TTCACAGAGAATTAC, SEQ ID NO 9, intron 19 (eTeTe[5mC]eAe[5mC]eAeGeAeGeAeAeTeTeAe[5mC]; splice-switching)
[3]; Table 1
  % inclusion (exon 20): 25%

## ISIS 414161: uniform 2′-MOE 15-mer, phosphate backbone; AACAGTACAATGGCG, SEQ ID NO 40, intron 20; one mismatch with SEQ ID NO 1 (eAeAe[5mC]eAeGeTeAe[5mC]eAeAeTeGeGe[5mC]eG)
[3]
  effect on exon 20 inclusion/skipping, in words: markedly increased inclusion of exon 20
[3]; Table 1
  % inclusion (exon 20): 88%
[3]; Table 2 (microwalk experiment)
  % inclusion (exon 20): 79%

## ISIS 414174: uniform 2′-MOE 15-mer, phosphate backbone; AGTTCTCGAAATTGT, SEQ ID NO 53, intron 20 (eAeGeTeTe[5mC]eTe[5mC]eGeAeAeAeTeTeGeT; splice-switching)
[3]; Table 1
  % inclusion (exon 20): 29%

## ISIS 414141: uniform 2′-MOE 15-mer, phosphate backbone; TTTTAATTAAGTAGA, SEQ ID NO 20, intron 19 (eTeTeTeTeAeAeTeTeAeAeGeTeAeGeA; splice-switching)
[3]; Table 1
  % inclusion (exon 20): 24%

## ISIS 414168: uniform 2′-MOE 15-mer, phosphate backbone; GTCTTCACACATAAA, SEQ ID NO 47, intron 20 (eGeTe[5mC]eTeTe[5mC]eAe[5mC]eAe[5mC]eAeTeAeAeA; splice-switching)
[3]
  effect on exon 20 inclusion/skipping, in words: significantly decreased the levels of the included RNA isoform
[3]; Table 1
  % inclusion (exon 20): 17%

## ISIS 421991: uniform 2′-MOE 20-mer, phosphate backbone; TCGCAAACAGTACAATGGCG, SEQ ID NO 60, intron 20 (eTe[5mC]eGe[5mC]eAeAeAe[5mC]eAeGeTeAe[5mC]eAeAeTeGeGe[5mC]eG; splice-switching)
[3]; Table 2 (microwalk experiment)
  % inclusion (exon 20): 91%

## ISIS 421993: uniform 2′-MOE 20-mer, phosphate backbone; AGTCGCAAACAGTACAATGG, SEQ ID NO 62, intron 20 (eAeGeTe[5mC]eGe[5mC]eAeAeAe[5mC]eAeGeTeAe[5mC]eAeAeTeGeG; splice-switching)
[3]; Table 2 (microwalk experiment)
  % inclusion (exon 20): 87%

## ISIS 414167: uniform 2′-MOE 15-mer, phosphate backbone; CACACATAAATCACA, SEQ ID NO 46, intron 20 (e[5mC]eAe[5mC]eAe[5mC]eAeTeAeAeAeTe[5mC]eAe[5mC]eA; splice-switching)
[3]
  effect on exon 20 inclusion/skipping, in words: significantly decreased the levels of the included RNA isoform
[3]; Table 1
  % inclusion (exon 20): 13%
